Experimental data taken from ChEMBL document CHEMBL4339205, “Design, synthesis, and biological evaluation of novel pyrrolo[1,2-a]pyrazine derivatives” (Bioorg Med Chem Lett, 2019).
Calls of active or inactive are those of the source. No cut-off for these calls is given here.

Assays:
U-937 [1] = assay: Cytotoxicity against human U937 cells assessed as reduction in cell viability at 10 uM measured after 3 days by CCK8 assay; assay type: functional, cell-based
U-937 [2] = assay: Cytotoxicity against human U937 cells assessed as reduction in cell viability measured after 3 days by CCK8 assay; assay type: functional, cell-based; conditions: U-937, 72 h
U-937 [3] = assay: Induction of apoptosis in human U937 cells assessed as live cells at 0.3 uM measured after 1 day by muse Annexin V/dead cell reagent staining-based flow cytometry (reference value: 95.05 %); assay type: functional
U-937 [4] = assay: Induction of apoptosis in human U937 cells assessed as increase in caspase-3/7 activity up to 1 uM after 24 hrs; assay type: functional, cell-based
U-937 [5] = assay: Induction of apoptosis in human U937 cells assessed as late apoptotic cells at 0.3 uM measured after 1 day by muse Annexin V/dead cell reagent staining-based flow cytometry (reference value: 1.75 %); assay type: functional
CCD-18Co = assay: Cytotoxicity against human CCD-18Co cells assessed as reduction in cell viability measured after 3 days by CCK8 assay; assay type: cell-based; conditions: 72 h
U-937 [6] = assay: Induction of apoptosis in human U937 cells assessed as live cells at 0.3 uM measured after 3 days by muse Annexin V/dead cell reagent staining-based flow cytometry (reference value: 95.05 %); assay type: functional
U-937 [7] = assay: Induction of apoptosis in human U937 cells assessed as necrotic cells at 0.3 uM measured after 2 days by muse Annexin V/dead cell reagent staining-based flow cytometry (reference value: 2.5 %); assay type: functional
U-937 [8] = assay: Induction of apoptosis in human U937 cells assessed as late apoptotic cells at 0.3 uM measured after 2 days by muse Annexin V/dead cell reagent staining-based flow cytometry (reference value: 1.75 %); assay type: functional
[9] = target: T1, Protein farnesyltransferase (Homo sapiens) (UniProt P49354+P49356); assay: Inhibition of FTase in human U937 cells assessed as reduction in p38 MAPK phosphorylation at 0.3 uM measured after 1 to 3 hrs y Western blot analysis; assay type: cell-based
U-937 [10] = assay: Induction of apoptosis in human U937 cells assessed as necrotic cells at 0.3 uM measured after 3 days by muse Annexin V/dead cell reagent staining-based flow cytometry (reference value: 2.5 %); assay type: functional
U-937 [11] = assay: Induction of apoptosis in human U937 cells assessed as early apoptotic cells at 0.3 uM measured after 3 days by muse Annexin V/dead cell reagent staining-based flow cytometry (reference value: 0.7 %); assay type: functional
U-937 [12] = assay: Induction of apoptosis in human U937 cells assessed as live cells at 0.3 uM measured after 2 days by muse Annexin V/dead cell reagent staining-based flow cytometry (reference value: 95.05 %); assay type: functional
U-937 [13] = assay: Induction of apoptosis in human U937 cells assessed as early apoptotic cells at 0.3 uM measured after 1 day by muse Annexin V/dead cell reagent staining-based flow cytometry (reference value: 0.7 %); assay type: functional
U-937 [14] = assay: Induction of apoptosis in human U937 cells assessed as early apoptotic cells at 0.3 uM measured after 2 days by muse Annexin V/dead cell reagent staining-based flow cytometry (reference value: 0.7 %); assay type: functional
U-937 [15] = assay: Induction of apoptosis in human U937 cells assessed as necrotic cells at 0.3 uM measured after 1 day by muse Annexin V/dead cell reagent staining-based flow cytometry (reference value: 2.5 %); assay type: functional
[16] = target: T1, Protein farnesyltransferase (Homo sapiens); assay: Inhibition of FTase (unknown origin); assay type: protein-complex assay
Homo sapiens = organism: Homo sapiens; assay: Inhibition of ERK phosphorylation in human U937 cells at 0.3 uM measured after 1 to 3 hrs y Western blot analysis; assay type: cell-based
U-937 [17] = assay: Induction of apoptosis in human U937 cells assessed as late apoptotic cells at 0.3 uM measured after 3 days by muse Annexin V/dead cell reagent staining-based flow cytometry (reference value: 1.75 %); assay type: functional
[18] = target: c-Jun N-terminal kinase, JNK (Homo sapiens) (UniProt P45983+P53779+P45984); assay: Inhibition of JNK phosphorylation in human U937 cells at 0.3 uM measured after 1 to 3 hrs y Western blot analysis; assay type: cell-based

For `COc1cccc(/C=C/C(=O)c2ccn3cc(-c4ccccc4)ncc23)c1`, which Activity (U-937 [1]) is on record?
Its Activity is “Active”.

Which results are given for `O=C(/C=C/c1ccncc1)c1ccn2cc(-c3ccccc3)ncc12`?
IC50 (U-937 [2]): 690 nM; Activity (U-937 [1]): Active

Which IC50 (U-937 [2]) does the source give for `O=C(/C=C/c1cccnc1)c1ccn2cc(-c3ccccc3)ncc12` here?
Its IC50 is 630 nM.

And the Activity (U-937 [1])?
The Activity was “Active”.

Which results are given for `COc1ccc(/C=C/C(=O)c2ccn3cc(-c4ccccc4)ncc23)c(OC)c1`?
Activity (U-937 [3]): 84.45%; IC50 (U-937 [2]): 180 nM; Activity (U-937 [4]): Active; Activity (U-937 [5]): 4.85%; IC50 (CCD-18Co): 7440 nM; Activity (U-937 [6]): 83.15%; Activity (U-937 [7]): 5.1%; Activity (U-937 [8]): 4.2%; inhibition [9]: Active; Activity (U-937 [10]): 5.2%; Activity (U-937 [11]): 5.95%; Activity (U-937 [12]): 88.55%; Activity (U-937 [13]): 2.3%; Activity (U-937 [14]): 2.15%; Activity (U-937 [15]): 8.4%; inhibition [16]: Active; inhibition (Homo sapiens): inactive; Activity (U-937 [17]): 5.7%; inhibition [18]: inactive

How did the Activity (U-937 [3]) turn out when `Nc1ccn([C@@H]2O[C@H](CO)[C@@H](O)[C@@H]2O)c(=O)n1` [CYTARABINE] was run?
The Activity was 79.05%.

What about the IC50 (U-937 [2]) of the same molecule?
The IC50 was 2 nM.

What about the Activity (U-937 [5]) of the same molecule?
Its Activity is 5.55%.

What about the Activity (U-937 [6]) of the same molecule?
The Activity was 69.7%.

And the Activity (U-937 [7])?
The Activity was 8.8%.

What about the Activity (U-937 [8]) of the same molecule?
Its Activity is 5.35%.

And the Activity (U-937 [1])?
The Activity was “Active”.

And the Activity (U-937 [10])?
The Activity was 11.05%.

What about the Activity (U-937 [11]) of the same molecule?
The Activity was 8.7%.

And the Activity (U-937 [12])?
The Activity was 83.2%.

What about the Activity (U-937 [13]) of the same molecule?
Its Activity is 4.2%.

And the Activity (U-937 [14])?
The Activity was 2.65%.

What about the Activity (U-937 [15]) of the same molecule?
Its Activity is 11.2%.

What about the Activity (U-937 [17]) of the same molecule?
Its Activity is 10.55%.

Which results are given for `COc1ccccc1/C=C/C(=O)c1ccn2cc(-c3ccccc3)ncc12`?
IC50 (U-937 [2]): 770 nM; Activity (U-937 [1]): Active

Which Activity (U-937 [1]) does the source give for `O=C(/C=C/c1ccccc1Br)c1ccn2cc(-c3ccccc3)ncc12` here?
The Activity was “inactive”.

Which Activity (U-937 [1]) does the source give for `O=C(/C=C/c1ccccc1F)c1ccn2cc(-c3ccccc3)ncc12` here?
The Activity was “inactive”.

With `O=C(/C=C/c1ccccn1)c1ccn2cc(-c3ccccc3)ncc12` as the molecule, how does the IC50 (U-937 [2]) read?
Its IC50 is 880 nM.

And the Activity (U-937 [1])?
Its Activity is “Active”.

For `COc1ccc(/C=C/C(=O)c2ccn3cc(-c4ccccc4)ncc23)cc1`, which Activity (U-937 [1]) is on record?
Its Activity is “Active”.

`O=C(/C=C/c1ccccc1I)c1ccn2cc(-c3ccccc3)ncc12` was tested. Which Activity (U-937 [1]) did it give?
The Activity was “inactive”.

Which Activity (U-937 [1]) does the source give for `COc1ccc(OC)c(/C=C/C(=O)c2ccn3cc(-c4ccccc4)ncc23)c1` here?
The Activity was “inactive”.

`O=C(/C=C/c1ccccc1Cl)c1ccn2cc(-c3ccccc3)ncc12` was tested. Which Activity (U-937 [1]) did it give?
Its Activity is “inactive”.
